Laboratory results as given in patent publication US11253507B2 (Singapore Health Services PTE LTD, priority 2017, dated 2022).
Several values for one entry are separate records, joined by “and”; a condition that tells them apart may be missing. Equal values may be shown once.

What was measured:
[1] = tested on: patients; assay: Adverse effects of treatment with very low concentration atropine composition (pupil dilation, loss of accommodation); format: in vivo, human; details: composition with very low concentration of atropine (less than 0.025%, e.g. 0.01%); mean +/− SD
Description: The pupil dilation associated with the treatment is often no greater than 2 mm, e.g., no greater than 1.9 mm, no greater than 1.8 mm, no greater than 1.7 mm, no greater than 1.5 mm, or no greater than 1.49 mm. Typically, patients treated with the composition disclosed above may experience pupil dilation of 0.74+/−0.75 mm. The loss of accommodation associated with the treatment is also minimal, typically no greater than 10 D, e.g., no greater than 9 D, no greater than 8.5 D, no greater than 8.8 D, or no greater than 8 D. Typically, patents treated with the composition disclosed above may experience a loss of accommodation of 4.6+/−4.2 D.

[2] = tested on: C57BL/6J mice; assay: Spectacle lens-induced myopia (−15 D lens) model, ocular biometry (axial length, refraction) after 0.01% atropine pre-treatment; format: in vivo; details: for Change in AL, Avg +/− SEM: Group 2 mean (n=7), 0.01% atropine pre-treatment for 2 weeks
Protocol: Animals: Three weeks old C57BL/6J mice were purchased from InVivos, Singapore and were held at the animal holding unit of SingHealth Experimental Medicine Centre. The experimental animals were housed individually in standard mouse cages at 25° C. on a schedule of 12:12 h of light on (325 lx) and off (0 lx), with mouse pellets and water available ad libidum. All the procedures performed in this study complied with the Association of Research in Vision and Ophthalmology (ARVO) Statement for the Use of Animals in Ophthalmic and Vision Research and were approved by SingHealth IACUC. Both the eyes of each animal were screened for the ophthalmic abnormalities, such as corneal opacities and anterior polar cataracts.
Mouse model of experimental myopia: Spectacle lens-induced myopia model was established by placing −15 D hard lens on the right eye of the animal, which served as the experimental eye, at post-natal day 35. Briefly, a −15 D lens (PMMA spectacle lens in blue tint, radius of outer curvature 8.5, inner curvature 8 mm, lens thickness 0.5 mm, Flexilens, India) was glued to an annulus (with 8 mm base curve) of Velcro. This mating piece was then attached to the Velcro that had been previously glued to the hair around the right experimental eye using a cyanoacrylate (Super Glue gel, UHU, Germany). This set up ensures that an air gap of 1.5 mm existed between the back part of the lens and the anterior surface of the cornea, so that the contact lens optically acted as a spectacle lens. The right eye of naïve group was attached with plano lens and acted as a negative control in the experimental study. Both the eyes in each animal were examined daily for any infection and the lenses were also cleaned regularly in dim red light. Left eyes were kept uncovered and were not used for any ocular biometry measurement in this study. Elizabethan collars made from thin plastic were fitted around the neck of each mouse upon lens-induction. This was done so as to prevent the mice from removing their lenses. Food pellets were placed on the floor of the cage to make eating easier. This strategy has also been followed previously by other groups doing mouse model of lens-induced myopia (Schaeffel et al., 2004).
Treatment protocols: A total of 27 mice were divided into 4 different groups as mentioned in Table 1, below. […] 7 μL of drug was administered topically to the right eye in dim red light at the same time each day. This was followed by lens (either −15 D or plano) induction on post-natal day 35, that was kept attached until day 49.
(§1) Ocular biometry such as axial length (AL) and refraction measurements were measured as described in Example 2. The measurements were done just before and 2 weeks after lens-induction, at days 35 and 49, respectively. The data was analyzed using the GraphPad Prism software version 7.02. Changes in AL and refraction between any two groups were analyzed using independent unpaired t-tests. A difference at p value<0.05 was considered statistically significant. Data are reported as mean+/−SEM. The body weights were recorded at post-natal days 22, 35 and 49.

[3] = Body weights in the lens-induced myopia study; format: in vivo, mice; details: 0.01% atropine topical; post-natal days 22, 35 and 49
Protocol: as §1, with “49. […] Changes in AL and refraction at day 49 relative to measurements at day 35 are shown in FIG. 3A and FIG. 3B, respectively.” for “49.”

[4] = tested on: myopic children; details: 0.01% atropine daily, cited from earlier work
[5] = tested on: B6J (Mus musculus) mice; assay: Murine myopia model (−10 D lens), atropine sulfate eye drops prior to inducing myopia, ocular biometry; format: in vivo
Protocol: Animals: Breeding pair B6J (Mus musculus) mice were obtained from Jackson Lab and produced offspring. Naive control animals were housed in groups of 6 while experimental animals were housed individually in standard mouse cages after 21 days of age at 25° C. on a schedule of 12:12 h of light on and off with mouse pellets and water available ad libidum. Approval was obtained from the SingHealth Institutional Animal Care and Use of Committee (IACUC) and all procedures performed in this study complied with the Association of Research in Vision and Ophthalmology (ARVO) Statement for the Use of Animals in Ophthalmology and Vision Research.
Murine Myopia Model: A −10 D contact lens (PMMA Contact Lens in Grey Tint, 8.5 mm diameter, 8 mm base curve, refractive Index: 1.43, axial thickness: 0.5 mm) was placed over the right eye on day 21 by gluing to an annulus of velcro, and then attaching to a matching piece of velcro that had been previously sutured to the skin around the eye. The spectacle lenses were cleaned daily in dim light and left eyes were uncovered and served as controls. […]
Ocular biometry assessment: Refractions and biometry measurements were recorded every week until the end of the study. Axial length was measured with in vivo Optic Low Coherence Interferometry (OLCI-AcMaster). Refraction was measured by automated eccentric photorefractor. […]

[6] = Group 2, 0.01% atropine pre-treatment day 22-35, 2 weeks after −15 D lens induction, individual mice
[7] = Group 2, 0.01% atropine pre-treatment, day 49 relative to day 35, −15 D lens, individual mice

In the case of `CN1[C@@H]2CC[C@H]1C[C@@H](OC(=O)C(CO)c1ccccc1)C2` (stereo partly shown) [Atropine, atropine], the Loss of accommodation [1] is reported as 4.6+/−4.2 D, the Pupil dilation [1] is reported as 0.74+/−0.75 mm and the “Reduction of the increase in AL as compared to vehicle pre-treated myopic eyes” value ([2]; 0.01% atropine topical for 2 weeks before lens-induction, two-tailed p-value=0.1557) is reported as ~15%. The “Refraction at D35” value ([2]; Group 2, 0.01% atropine 7 μL topical daily, day 22-35, right eye, just before −15 D lens induction, individual mice) was 7.44 Diopter and 3.71 Diopter and 7.66 Diopter and 5.96 Diopter and 5.29 Diopter and 5.43 Diopter and 8.34 Diopter, the “AL at D35” value ([2]; Group 2, 0.01% atropine 7 μL topical daily, post-natal day 22-35, right eye, just before −15 D lens induction, individual mice) was 3.189 mm and 3.159 mm and 3.195 mm and 3.214 mm and 3.297 mm and 3.250 mm and 3.269 mm and the “AL at D49” value [2, 6] was 3.268 mm and 3.238 mm and 3.277 mm and 3.340 mm and 3.374 mm and 3.335 mm and 3.386 mm. The “Refraction at D49” value [2, 6] was 5.22 Diopter and −1.85 Diopter and 6.30 Diopter and 6.26 Diopter and 6.27 Diopter and 4.17 Diopter and 8.14 Diopter, the “Change in AL” value [2, 7] was 0.079 mm (2×) and 0.082 mm and 0.126 mm and 0.077 mm and 0.084 mm and 0.117 mm and the Change in refraction [2, 7] was −2.22 Diopter and −5.57 Diopter and −1.37 Diopter and 0.30 Diopter and 0.99 Diopter and −1.26 Diopter and −0.20 Diopter. The “Change in AL, Avg +/− SEM” value ([2]; day 49 relative to day 35, −15 D lens) was 0.092 mm, the “Change in AL, Avg +/− SEM” value ([2]; day 49 relative to day 35, −15 D lens, listed as atropine) was 0.092 mm and the “Impact on body weights” value [3] was “Neither the drug (atropine and vehicle) nor the lens treatment adversely impacted the body weights”. For the same compound, the “Reduction of mean 2-year decline in SE vs placebo” value ([4]; ATOM1 and ATOM2) was “about 58%”, the “Mean 2-year decline in SE” value ([4]; placebo about −1.2 D (Chia et al.)) was ~−0.5 D and the “Refractive error (refraction state)” value ([5]; Atropine sulfate 1% for 2 weeks prior to −10 D lens for 4 weeks, FIG. 1B, p<0.01 vs −10 D lens alone) was “remained hyperopic”. For the same compound, the “Effect on axial elongation (axial length)” value ([5]; Group 2: 1% daily 10 μl topical from day 21 for 2 weeks, then −10 D lens for 4 weeks, FIG. 1A, p<0.01, n=18) was “blocked most of the elongation of axial length”.
